Results as given in paper PMC11092803, “Heme allocation in eukaryotic cells relies on mitochondrial heme export through FLVCR1b to cytosolic GAPDH” (Research Square, 2024).

Molecular target: T1, IDO1 (Homo sapiens, UniProt P14902)
T1 construct: full-length with FLAG tag, expressed in HEK293T cells; immunoprecipitated for 14C-heme count
Assay: L-kynurenine in culture medium, p-dimethylaminobenzaldehyde colorimetry at […] nm
Assay type: cell-based
Settings: intact HEK293T cells expressing IDO1; L-Trp 2 mM, with or without δ-ALA and ferric citrate, 5 h

T1 sequence (P14902 whole entry): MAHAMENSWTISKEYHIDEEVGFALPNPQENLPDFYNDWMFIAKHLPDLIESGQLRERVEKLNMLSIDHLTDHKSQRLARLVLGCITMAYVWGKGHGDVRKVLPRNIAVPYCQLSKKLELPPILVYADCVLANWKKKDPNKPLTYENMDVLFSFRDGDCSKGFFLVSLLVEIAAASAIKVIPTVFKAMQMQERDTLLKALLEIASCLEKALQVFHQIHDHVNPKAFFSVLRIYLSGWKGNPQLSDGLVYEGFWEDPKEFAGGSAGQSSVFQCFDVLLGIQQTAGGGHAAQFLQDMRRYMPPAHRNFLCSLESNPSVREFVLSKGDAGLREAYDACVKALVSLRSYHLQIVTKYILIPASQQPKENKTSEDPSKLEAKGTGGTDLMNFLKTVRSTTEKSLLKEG

SMILES: N[C@@H](Cc1c[nH]c2ccccc12)C(=O)O [L-Trp]
- L-kynurenine in culture medium, p-dimethylaminobenzaldehyde colorimetry at 492 n: IDO1 activity was determined by colorimetric measure of the accumulated L-Kynurenine product
